Patent US9428519B2, “Acylated derivative of homoharringtonine, preparation method therefor, and application thereof” (HANGZHOU BENSHENG PHARMACEUTICAL CO., LTD., priority 2011, dated 2016)
≈ marks a conversion by molar mass, not a printed value.

Columns and labels:
[1] = system: RPMI8226 (multiple myeloma); test: MTT growth inhibition of multiple myeloma cells, 72 h; assay type: cell-based, human; settings: Homo sapiens, RPMI-8226, MTT
Procedure: Multiple myeloma and lymphoma cell lines: RPMI8226 (multiple myeloma), purchased from Fuxiang Bio-tech Co. Ltd., Shanghai, China.
(§1) Obtaining 6000 well-growing leukemia cells and inoculating them into wells of a 96-well cell culture plate. The culture medium is the 1640 cell culture medium containing 10% fetal bovine serum. After adding the homoharringtonine derivatives of different concentrations and mixing uniformly, placing the plate in a carbon dioxide cell incubator (5% CO2) at 37° C. and incubated for 72 hours. Then the viable cell concentration is determined by the MTT method. In this experiment, the cell viability in control group (not treated with any compound) is set as 100%. On such basis, the cell viability (%) after treatment and the 50% inhibiting concentration of the compound for the leukemia cell growth at 72 hours (IC50 value of 72 hours) are calculated.

[2] = system: Kasumi-1 (acute myeloid leukemia M2 type, AML-M2); test: MTT growth inhibition of leukemia cells, 72 h; assay type: cell-based, human; settings: for IC50 / IC90: Homo sapiens, Kasumi 1, MTT
Description: (§2) Leukemia cell lines: leukemia cell lines: K562/adr (drug-resistant, chronic myeloid leukemia, CML), NB4 (acute promyelocytic leukemia, AML), Kasumi-1 (acute myeloid leukemia M2 type, AML-M2), Jurkat (acute lymphoblastic leukemia, ALL), all of which are donated by Cancer Research Institute of Zhejiang University, China; and H9 (acute lymphoblastic leukemia, ALL), which is purchased from China Center for Type Culture Collection (CCTCC).
(§3) Reagents: The standard sample of homoharringtonine (HHT) is purchased from Taihua Natural Plant Pharmaceutical Co., Ltd., Shaanxi, China, the homoharringtonine derivatives of the present invention.
as §1

[3] = system: H9 (acute lymphoblastic leukemia, ALL); test: MTT growth inhibition of leukemia cells, 72 h; assay type: cell-based, human; settings: for IC50 / IC90: Homo sapiens, MTT
Description: as §2, §3, §1

[4] = system: K562/adr (drug-resistant, chronic myeloid leukemia, CML); test: MTT growth inhibition of leukemia cells, 72 h; assay type: cell-based, human; settings: for IC50 / IC90: Homo sapiens, K562/Adr, MTT
Description: as §2, §3, §1

[5] = system: Jurkat (acute lymphoblastic leukemia, ALL); test: MTT growth inhibition of leukemia cells, 72 h; assay type: cell-based, human; settings: Homo sapiens, Jurkat
Description: as §2, §3, §1

[6] = system: NB4 (acute promyelocytic leukemia, AML); test: MTT growth inhibition of leukemia cells, 72 h; assay type: cell-based, human; settings: for IC50 / IC90: Homo sapiens, MTT
Description: as §2, §3, §1

[7] = system: A549 (human lung cancer); test: MTT growth inhibition of human solid tumor cells, 72 h; assay type: cell-based; settings: Homo sapiens, A549
Procedure: (§4) Human solid tumor cell lines: Hep-2 (laryngeal carcinoma), A549 (human lung cancer), CaES-17 (esophageal cancer cell), PC-3 (prostate cancer), CNE (nasopharyngeal carcinoma cell), and SK-OV-3 (ovarian cancer cell), all of which are purchased from China Center For Type Culture Collection; RKO (human colon adenocarcinoma cell), MGC 803 (human gastric cancer cell), MG63 (osteosarcoma) and U87 MG (malignant glioma cell), all of which are purchased from Fuxiang Bio-tech Co. Ltd., Shanghai, China; PANC-1 (pancreatic cancer), Huh7 (human liver cancer cell), Becap37 (human breast cancer cell), and Hela (human cervical cancer cell), all of which are donated by Cancer Research Institute of Zhejiang University, China.
(§5) Obtaining 4000 well-growing human solid tumor cells and inoculating them into wells of a 96-well cell culture plate. The culture medium is DMEM High Glucose cell culture medium containing 10% fetal bovine serum. The plate is placed in a carbon dioxide cell incubator (5% CO2) at 37° C. and incubated for 24 hours. After adding the homoharringtonine derivatives of different concentration and mixing uniformly, the plate is placed in a carbon dioxide cell incubator (5% CO2) at 37° C. and incubated for 72 hours. Then the viable cell concentration is determined by the MTT method and the cell viability (%) after drug treatment is calculated. In this experiment, the cell viability of control group (not treated with any compound) is set as 100%.

[8] = system: SK-OV-3 (ovarian cancer cell); test: as above; assay type: cell-based; settings: Homo sapiens, SK-OV-3, MTT
Procedure: as §4, §5

[9] = system: Huh7 (human liver cancer cell); test: as above; assay type: cell-based; settings: Homo sapiens, Huh-7
Procedure: as §4, §5

[10] = system: Hela (human cervical cancer cell); test: as above; assay type: cell-based; settings: for IC50 / IC90: Homo sapiens, HeLa, MTT
Procedure: as §4, §5

[11] = system: PC-3 (prostate cancer); test: as above; assay type: cell-based; settings: for IC50 / IC90: Homo sapiens, MTT
Procedure: as §4, §5

[12] = system: CaES-17 (esophageal cancer cell); test: as above; assay type: cell-based; settings: Homo sapiens, CaEs17
Procedure: as §4, §5

[13] = system: MG63 (osteosarcoma); test: as above; assay type: cell-based; settings: for IC50 / IC90: Homo sapiens, MG-63, MTT
Procedure: as §4, §5

[14] = system: PANC-1 (pancreatic cancer); test: as above; assay type: cell-based; settings: Homo sapiens, PANC-1, MTT
Procedure: as §4, §5

[15] = system: RKO (human colon adenocarcinoma cell); test: as above; assay type: cell-based; settings: Homo sapiens, MTT
Procedure: as §4, §5

[16] = system: Hep-2 (laryngeal carcinoma); test: as above; assay type: cell-based; settings: Homo sapiens, HEp-2
Procedure: as §4, §5

[17] = system: U87 MG (malignant glioma cell); test: as above; assay type: cell-based; settings: Homo sapiens, U-87 MG
Procedure: as §4, §5

[18] = system: MGC 803 (human gastric cancer cell); test: as above; assay type: cell-based; settings: Homo sapiens, MGC-803
Procedure: as §4, §5

[19] = system: Becap37 (human breast cancer cell); test: as above; assay type: cell-based; settings: Homo sapiens
Procedure: as §4, §5

[20] = system: CNE (nasopharyngeal carcinoma cell); test: as above; assay type: cell-based; settings: for IC50 / IC90: Homo sapiens, MTT
Procedure: as §4, §5

## COC(=O)C[C@](O)(CCCC(C)(C)OC(=O)Cc1ccccc1)C(=O)O[C@@H]1C(OC)=C[C@]23CCCN2CCc2cc4c(cc2[C@H]13)OCO4 [BS-HH-074]
[1]
  IC50: 0.003 µg/mL (≈ 0.00452 µM)
  IC90: 0.015 µg/mL (≈ 0.0226 µM)
[2]
  IC50: 0.001 µg/mL (≈ 0.00151 µM)
  IC90: 0.005 µg/mL (≈ 0.00753 µM)
[2]; vs HHT
  improvement of anti-Kasumi-1 activity compared with homoharringtonine: more than 5 fold
[3]
  IC50: 0.004 µg/mL (≈ 0.00603 µM)
  IC90: 0.01 µg/mL (≈ 0.0151 µM)
[3]; vs HHT
  improvement of anti-H9 activity compared with homoharringtonine: more than 2 fold
[4]
  IC50: 0.007 µg/mL (≈ 0.0105 µM)
  IC90: 14.1 µg/mL (≈ 21.2 µM)
[4]; vs HHT
  improvement of anti-K562/adr activity compared with homoharringtonine: more than 5 fold
[5]
  IC50: 0.0038 µg/mL (≈ 0.00572 µM)
  IC90: ≥ 16 µg/mL
[6]
  IC50: 0.003 µg/mL (≈ 0.00452 µM)
  IC90: 0.007 µg/mL (≈ 0.0105 µM)
[6]; vs HHT
  improvement of anti-NB4 activity compared with homoharringtonine: more than 2 fold
[7]
  IC50: 0.007 µg/mL (≈ 0.0105 µM)
  IC90: > 16 µg/mL
[8]
  IC50: 0.027 µg/mL (≈ 0.0407 µM)
  IC90: > 16 µg/mL
[9]
  IC50: 0.003 µg/mL (≈ 0.00452 µM)
  IC90: 0.05 µg/mL (≈ 0.0753 µM)
[10]
  IC50: 0.0034 µg/mL (≈ 0.00512 µM)
  IC90: 12.6 µg/mL (≈ 19 µM)
[10]; vs HHT
  anti-Hela effect relative to homoharringtonine: > 5.6 fold
[11]
  IC50: 0.0077 µg/mL (≈ 0.0116 µM)
  IC90: > 16 µg/mL
[11]; vs HHT
  anti-PC-3 effect relative to homoharringtonine: more than 10 fold
[12]
  IC50: 0.015 µg/mL (≈ 0.0226 µM)
  IC90: 16 µg/mL (≈ 24.1 µM)
[13]
  IC50: 0.006 µg/mL (≈ 0.00904 µM)
  IC90: 1.18 µg/mL (≈ 1.78 µM)
[13]; vs HHT
  anti-MG63 effect relative to homoharringtonine: substantially superior
[14]
  IC50: 0.014 µg/mL (≈ 0.0211 µM)
  IC90: > 16 µg/mL
[15]
  IC50: 0.002 µg/mL (≈ 0.00301 µM)
  IC90: 0.006 µg/mL (≈ 0.00904 µM)
[16]
  IC50: 0.006 µg/mL (≈ 0.00904 µM)
  IC90: > 16 µg/mL
[17]
  IC50: 0.012 µg/mL (≈ 0.0181 µM)
  IC90: 0.08 µg/mL (≈ 0.121 µM)
[18]
  IC50: 0.006 µg/mL (≈ 0.00904 µM)
  IC90: 0.055 µg/mL (≈ 0.0829 µM)
[19]
  IC50: 0.003 µg/mL (≈ 0.00452 µM)
  IC90: 8.38 µg/mL (≈ 12.6 µM)
[20]
  IC50: 0.0014 µg/mL (≈ 0.00211 µM)
  IC90: > 16 µg/mL
[20]; vs HHT
  anti-CNE effect relative to homoharringtonine: > 27 fold

## COC(=O)C[C@](O)(CCCC(C)(C)O)C(=O)O[C@@H]1C(OC)=C[C@]23CCCN2CCc2cc4c(cc2[C@H]13)OCO4 [HHT, O-3-[(2R)-2,6-dihydroxy-2-(2′-methoxy-2′-oxoethyl)-6-methylheptanoyl]cephalotaxine, reference compound]
[1]
  IC50: 0.006 µg/mL (≈ 0.011 µM)
  IC90: 0.027 µg/mL (≈ 0.0495 µM)
[2]
  IC50: 0.005 µg/mL (≈ 0.00916 µM)
  IC90: 0.024 µg/mL (≈ 0.044 µM)
[3]
  IC50: 0.02 µg/mL (≈ 0.0367 µM)
  IC90: 0.046 µg/mL (≈ 0.0843 µM)
[4]
  IC50: 0.035 µg/mL (≈ 0.0641 µM)
  IC90: 0.98 µg/mL (≈ 1.8 µM)
[5]
  IC50: 0.007 µg/mL (≈ 0.0128 µM)
  IC90: ≥ 16 µg/mL
[6]
  IC50: 0.006 µg/mL (≈ 0.011 µM)
  IC90: 0.012 µg/mL (≈ 0.022 µM)
[7]
  IC50: 0.03 µg/mL (≈ 0.055 µM)
  IC90: > 16 µg/mL
[8]
  IC50: 0.09 µg/mL (≈ 0.165 µM)
  IC90: > 16 µg/mL
[9]
  IC50: 0.004 µg/mL (≈ 0.00733 µM)
  IC90: 0.049 µg/mL (≈ 0.0898 µM)
[10]
  IC50: 0.019 µg/mL (≈ 0.0348 µM)
  IC90: 16 µg/mL (≈ 29.3 µM)
[11]
  IC50: 0.08 µg/mL (≈ 0.147 µM)
  IC90: > 16 µg/mL
[12]
  IC50: 0.037 µg/mL (≈ 0.0678 µM)
  IC90: > 16 µg/mL
[13]
  IC50: 0.01 µg/mL (≈ 0.0183 µM)
  IC90: 1.2 µg/mL (≈ 2.2 µM)
[14]
  IC50: 0.035 µg/mL (≈ 0.0641 µM)
  IC90: > 16 µg/mL
[15]
  IC50: 0.003 µg/mL (≈ 0.0055 µM)
  IC90: 0.009 µg/mL (≈ 0.0165 µM)
[16]
  IC50: 0.014 µg/mL (≈ 0.0257 µM)
  IC90: > 16 µg/mL
[17]
  IC50: 0.004 µg/mL (≈ 0.00733 µM)
  IC90: 0.018 µg/mL (≈ 0.033 µM)
[18]
  IC50: 0.016 µg/mL (≈ 0.0293 µM)
  IC90: 0.2 µg/mL (≈ 0.367 µM)
[19]
  IC50: 0.01 µg/mL (≈ 0.0183 µM)
  IC90: 11.6 µg/mL (≈ 21.2 µM)
[20]
  IC50: 0.038 µg/mL (≈ 0.0696 µM)
  IC90: > 16 µg/mL
